Experimental data: patent publication US12662491B2 (Redona Therapeutics, Inc., priority 2020, dated 2026)
pIC50: −log10 of the molar value. Where two headings read alike, the source gives them in different places.

Target: T1, Zcchc11 enzyme (Homo sapiens, UniProt Q5TAX3)
T1 construct: made in house; host or cells: HEK293 cells (Zcchc11); E. coli Rosetta II (LIN28A)
T1 sequence (Q5TAX3 212-1420): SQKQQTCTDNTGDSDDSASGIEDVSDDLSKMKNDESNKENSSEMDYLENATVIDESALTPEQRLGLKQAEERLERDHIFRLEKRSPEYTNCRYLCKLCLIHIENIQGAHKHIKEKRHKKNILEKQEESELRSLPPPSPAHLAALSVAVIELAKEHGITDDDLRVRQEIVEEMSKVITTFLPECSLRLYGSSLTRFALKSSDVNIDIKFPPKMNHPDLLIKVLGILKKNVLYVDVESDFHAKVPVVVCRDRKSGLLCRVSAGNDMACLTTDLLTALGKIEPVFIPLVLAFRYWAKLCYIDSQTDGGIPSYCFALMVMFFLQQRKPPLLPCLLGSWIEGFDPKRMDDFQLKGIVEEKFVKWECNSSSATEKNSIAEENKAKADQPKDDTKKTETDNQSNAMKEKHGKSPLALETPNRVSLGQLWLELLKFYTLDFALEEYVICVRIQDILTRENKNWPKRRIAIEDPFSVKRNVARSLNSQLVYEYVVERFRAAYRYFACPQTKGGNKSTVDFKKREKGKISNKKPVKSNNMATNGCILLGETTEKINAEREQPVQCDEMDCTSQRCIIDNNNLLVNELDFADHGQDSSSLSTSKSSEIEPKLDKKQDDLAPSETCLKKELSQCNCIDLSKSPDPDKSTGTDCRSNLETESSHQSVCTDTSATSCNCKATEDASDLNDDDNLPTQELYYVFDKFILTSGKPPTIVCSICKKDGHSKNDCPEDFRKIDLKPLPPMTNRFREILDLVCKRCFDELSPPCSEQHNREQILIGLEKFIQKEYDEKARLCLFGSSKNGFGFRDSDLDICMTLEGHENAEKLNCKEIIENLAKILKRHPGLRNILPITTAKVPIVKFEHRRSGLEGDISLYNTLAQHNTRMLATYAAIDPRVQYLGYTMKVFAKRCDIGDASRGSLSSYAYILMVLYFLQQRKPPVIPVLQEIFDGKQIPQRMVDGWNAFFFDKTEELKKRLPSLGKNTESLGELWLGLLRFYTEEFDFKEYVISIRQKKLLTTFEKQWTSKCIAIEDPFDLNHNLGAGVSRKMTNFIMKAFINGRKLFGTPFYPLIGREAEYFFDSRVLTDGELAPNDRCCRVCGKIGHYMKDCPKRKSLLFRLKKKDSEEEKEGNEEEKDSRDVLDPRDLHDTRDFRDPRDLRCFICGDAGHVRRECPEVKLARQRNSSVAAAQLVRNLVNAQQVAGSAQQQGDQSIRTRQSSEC
Experiment: TUTase assay (Zcchc11 assay, Lin28a-dependent polyuridylation of pre-let-7)
Format: biochemical
Conditions: read-out: Potency Lin28a-dep Z11 IC50
How it was run: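 Readout: time-dependent quench of 5′-fluorescein pre-let-7 (2 nM) as 3′-rhodamine A20 probe anneals to poly(U) tails. Enzyme 0.2 nM Zcchc11 (res. 212-1420), LIN28A 10 nM, UTP 5 uM; pH 7.3 HEPES, 150 mM KCl, 5 mM MgCl2, RT. 4-parameter IC50; 100% = DMSO, 0% = no UTP.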

[1] = LIN28A 10 nM, Zcchc11 0.2 nM, 5′-fluorescein pre-let-7 miRNA 2 nM, UTP 5 uM, room temperature, 30 minutes pre-incubation
[2] = Lin28a-dependent Zcchc11 (Z11) TUTase activity
[3] = Lin28a-dependent Zcchc11 (Z11) TUTase assay

How did the pIC50 [1] turn out when `COc1ccc(Cl)c(OC[C@H]2CC(c3cn[nH]c3)CN2c2cc3c(cc2F)c(=O)c(C(=O)O)cn3-c2ccc(N3CC(N(C)C)C3)nc2)n1` (stereo partly drawn) [Example 71, 7-[(2R)-2-[[(3-chloro-6-methoxypyridin-2-yl)oxy]methyl]-4-(1H-pyrazol-4-yl)pyrrolidin-1-yl]-1-[6-[3-(dimethylamino)azetidin-1-yl]pyridin-3-yl]-6-fluoro-4-oxoquinoline-3-carboxylic acid] was run?
The pIC50 was at least 6.00.

With `N#Cc1cccnc1OC[C@H]1CCCN1c1cc2c(cc1Cl)c(=O)c(C(=O)O)cn2-c1ccccc1` [Compound 110, (R)-6-chloro-7-(2-(((3-cyanopyridin-2-yl)oxy)methyl)pyrrolidin-1-yl)-4-oxo-1-phenyl-1,4-dihydro-quinoline-3-carboxylic acid] as the molecule, how does the pIC50 [2] read?
Its pIC50 is at least 6.00.

`O=C(O)c1cn(-c2ccc(O)cc2F)c2cc(N3CCC[C@@H]3COc3ccccc3)c(F)cc2c1=O` [Compound 90, (R)-6-fluoro-1-(2-fluoro-4-hydroxy-phenyl)-4-oxo-7-(2-(phenoxy-methyl)pyrrolidin-1-yl)-1,4-dihydro-quinoline-3-carboxylic acid] was tested. Which pIC50 [2] did it give?
Its pIC50 is under 4.30.

How did the pIC50 [2] turn out when `CN(C)C1CN(c2ccc(-n3cc(C(=O)O)c(=O)c4cc(C#N)c(N5CCC[C@]5(C)COc5ncccc5F)cc43)cn2)C1` [Compound 284, (R)-6-cyano-1-(6-(3-(dimethyl-amino)azetidin-1-yl)pyridin-3-yl)-7-(2-(((3-fluoropyridin-2-yl)oxy)methyl)-2-methyl-pyrrolidin-1-yl)-4-oxo-1,4-dihydro-quinoline-3-carboxylic acid] was run?
Its pIC50 is at least 6.00.

With `O=C(O)c1cn(-c2ccc(N3CCCC3)nc2)c2cc(N3CCC[C@@H]3COc3ncccc3Cl)c(Cl)cc2c1=O` [Example 432, (R)-6-chloro-7-(2-(((3-chloropyridin-2-yl)oxy)methyl)pyrrolidin-1-yl)-4-oxo-1-(6-(pyrrolidin-1-yl)pyridin-3-yl)-1,4-dihydroquinoline-3-carboxylic acid] as the molecule, how does the pIC50 [3] read?
Its pIC50 is at least 6.00.

`COCCNc1cnc(-n2cc(C(=O)O)c(=O)c3cc(Cl)c(N4CCC[C@@H]4COc4ncccc4Cl)cc32)cn1` [Example 481, 6-chloro-7-[(2R)-2-{[(3-chloropyridin-2-yl)oxy]methyl}pyrrolidin-1-yl]-1-{5-[(2-methoxyethyl)amino]pyrazin-2-yl}-4-oxo-1,4-dihydroquinoline-3-carboxylic acid] was tested. Which pIC50 [3] did it give?
The pIC50 was at least 6.00.

How did the pIC50 [2] turn out when `CN(C)C1CN(c2ccc(-n3cc(C(=O)O)c(=O)c4cc(Cl)c(N5CCC[C@@]5(C)COc5ncccc5Cl)nc43)cn2)C1` (racemic) [Compound 186, rac-(R)-6-chloro-7-(2-(((3-chloropyridin-2-yl)oxy)methyl)-2-methyl-pyrrolidin-1-yl)-1-(6-(3-(dimethyl-amino)azetidin-1-yl)pyridin-3-yl)-4-oxo-1,4-dihydro-1,8-naphthyridine-3-carboxylic acid] was run?
The pIC50 was at least 6.00.

`O=C(O)c1cn(-c2ccc3[nH]cnc3c2)c2cc(N3CCC[C@@H]3COc3ccccn3)c(F)cc2c1=O` [Example 440, (R)-1-(1H-benzo[d]imidazol-5-yl)-6-fluoro-4-oxo-7-(2-((pyridin-2-yloxy)methyl)pyrrolidin-1-yl)-1,4-dihydroquinoline-3-carboxylic acid] was tested. Which pIC50 [3] did it give?
The pIC50 was at least 6.00.

`O=C(O)c1cn(-c2cc(F)ccc2F)c2cc(N3CCC[C@@H]3COc3ccccn3)c(F)cc2c1=O` [Example 387, (R)-1-(2,5-difluorophenyl)-6-fluoro-4-oxo-7-(2-((pyridin-2-yloxy)methyl)pyrrolidin-1-yl)-1,4-dihydroquinoline-3-carboxylic acid] was tested. Which pIC50 [3] did it give?
The pIC50 was 5.00 to 6.00.

`CC(C)(O)c1ccc(-n2cc(C(=O)O)c(=O)c3cc(C#N)c(N4CCC[C@@H]4COc4ncccc4Cl)cc32)cn1` [Example 575, (R)-7-(2-(((3-chloropyridin-2-yl)oxy)methyl)pyrrolidin-1-yl)-6-cyano-1-(6-(2-hydroxypropan-2-yl)pyridin-3-yl)-4-oxo-1,4-dihydroquinoline-3-carboxylic acid] was tested. Which pIC50 [3] did it give?
The pIC50 was at least 6.00.

How did the pIC50 [3] turn out when `Cc1cccc(-n2cc(C(=O)O)c(=O)c3cc(F)c(N4CCC[C@@H]4COc4ccccn4)cc32)c1` [Example 391, (R)-6-fluoro-4-oxo-7-(2-((pyridin-2-yloxy)methyl)pyrrolidin-1-yl)-1-(m-tolyl)-1,4-dihydroquinoline-3-carboxylic acid] was run?
The pIC50 was at least 6.00.

With `Cc1cccnc1OC[C@H]1CCCN1c1cc2c(cc1F)c(=O)c(C(=O)O)cn2-c1ccc(O)cc1` [Compound 119, (R)-6-fluoro-1-(4-hydroxy-phenyl)-7-(2-(((3-methylpyridin-2-yl)oxy)methyl)pyrrolidin-1-yl)-4-oxo-1,4-dihydro-quinoline-3-carboxylic acid] as the molecule, how does the pIC50 [2] read?
Its pIC50 is at least 6.00.

`O=C(O)c1cn(-c2ccc(N3CCCCC3)nc2)c2cc(N3CCC[C@@H]3COc3ncccc3Cl)c(Cl)cc2c1=O` [Example 430, (R)-6-chloro-7-(2-(((3-chloropyridin-2-yl)oxy)methyl)pyrrolidin-1-yl)-4-oxo-1-(6-(piperidin-1-yl)pyridin-3-yl)-1,4-dihydroquinoline-3-carboxylic acid] was tested. Which pIC50 [3] did it give?
Its pIC50 is at least 6.00.

With `COc1ccc(Cl)c(OC[C@H]2C[C@@H]3C[C@@H]3N2c2cc3c(cc2F)c(=O)c(C(=O)O)cn3-c2ccc(N3CC(N(C)C)C3)nc2)n1` [Example 70, 7-[(3R)-3-{[(3-chloro-6-methoxypyridin-2-yl)oxy]methyl}-2-azabicyclo[3.1.0]hexan-2-yl]-1-{6-[3-(dimethylamino)azetidin-1-yl]pyridin-3-yl}-6-fluoro-4-oxo-1,4-dihydroquinoline-3-carboxylic acid] as the molecule, how does the pIC50 [1] read?
Its pIC50 is at least 6.00.

With `O=C(O)c1cn(-c2cnc3c(n2)COC3)c2cc(N3CCC[C@@H]3COc3ncccc3Cl)c(Cl)cc2c1=O` (racemic) [Compound 182, rac-(R)-6-chloro-7-(2-(((3-chloropyridin-2-yl)oxy)methyl)pyrrolidin-1-yl)-1-(5,7-dihydrofuro [3,4-b]pyrazin-2-yl)-4-oxo-1,4-dihydro-quinoline-3-carboxylic acid] as the molecule, how does the pIC50 [2] read?
The pIC50 was at least 6.00.

With `COc1ccnc(OC[C@H]2C[C@H]3C[C@H]3N2c2nc3c(cc2F)c(=O)c(C(=O)O)cn3-c2ccc(N3CC(N(C)C)C3)nc2)c1Cl` [Example 678, 7-((1R,3R,5R)-3-(((3-chloro-4-methoxypyridin-2-yl)oxy)methyl)-2-azabicyclo[3.1.0]hexan-2-yl)-1-(6-(3-(dimethylamino)azetidin-1-yl)pyridin-3-yl)-6-fluoro-4-oxo-1,4-dihydro-1,8-naphthyridine-3-carboxylic acid] as the molecule, how does the pIC50 [3] read?
Its pIC50 is at least 6.00.

How did the pIC50 [1] turn out when `CN(C)C1CN(c2ccc(-n3cc(C(=O)O)c(=O)c4cc(F)c(N5C[C@H](c6cccnc6)C[C@@H]5COc5ncccc5Cl)cc43)cn2)C1` [Example 61, 7-[(2R)-2-[[(3-Chloropyridin-2-yl)oxy]methyl]-4-(pyridin-3-yl)pyrrolidin-1-yl]-1-[6-[3-(dimethylamino)azetidin-1-yl]pyridin-3-yl]-6-fluoro-4-oxoquinoline-3-carboxylic acid] was run?
Its pIC50 is at least 6.00.

How did the pIC50 [3] turn out when `CO[C@H]1CCN(c2cc3c(cc2Cl)c(=O)c(C(=O)O)cn3-c2ccc(N3CC(N(C)C)C3)nc2)[C@H]1COc1ncccc1Cl` [Example 669, 6-chloro-7-((2S,3S)-2-(((3-chloropyridin-2-yl)oxy)methyl)-3-methoxypyrrolidin-1-yl)-1-(6-(3-(dimethylamino)azetidin-1-yl)pyridin-3-yl)-4-oxo-1,4-dihydroquinoline-3-carboxylic acid] was run?
The pIC50 was at least 6.00.

How did the pIC50 [1] turn out when `O=C(O)c1cn(-c2cnc(O)cn2)c2cc(N3CCC[C@@H]3COc3ccccn3)c(Cl)cc2c1=O` [Example 33, 6-chloro-1-(5-hydroxypyrazin-2-yl)-4-oxo-7-[(2R)-2-[(pyridin-2-yloxy)methyl]pyrrolidin-1-yl]-1,4-dihydroquinoline-3-carboxylic acid] was run?
The pIC50 was at least 6.00.
